Earlier results in patent publication US20120115828A1 (APEX LABORATORIES PRIVATE LIMITED, priority 2009, published 2012).

Solubility in alcohol (alcohol) | Solubility in chloroform | Solubility in water | Solubility in ethanol (95%) (ethanol (95%)) | Solubility in ether (ether) | Solubility in methanol (methanol) | Compound
slightly soluble | slightly soluble | insoluble |  |  |  | CC(=O)OCC(=O)[C@@]1(O)CC[C@H]2[C@@H]3CCC4=CC(=O)CC[C@]4(C)[C@H]3[C@@H](O)C[C@@]21C [Hydrocortisone Acetate]
 | slightly soluble | very slightly soluble | slightly soluble | very slightly soluble | freely soluble | Clc1ccc(COC(Cn2ccnc2)c2ccc(Cl)cc2Cl)c(Cl)c1 (centres unmarked) [Miconazole Nitrate, 1-[2-(2,4-Dichlorophenyl)-2-[(2,4-dichlorophenyl)methoxy]ethyl]-1H-imidazole]
